Measurements from the Kinase Knowledgebase extract (Sharma et al. 2016).

Legend:
Experiment in all cases: Enzyme Assay
PIK3CB (Human) = PIK3CB (Human) (UniProt P42338)
PIK3CD (Human) = PIK3CD (Human) (UniProt O00329)
PIK3CG (human) = PIK3CG (human) (UniProt P48736)
PIK3CA (human) = PIK3CA (human) (UniProt P42336)
Chain of PIK3CA (human) (P42336 whole entry, looked up): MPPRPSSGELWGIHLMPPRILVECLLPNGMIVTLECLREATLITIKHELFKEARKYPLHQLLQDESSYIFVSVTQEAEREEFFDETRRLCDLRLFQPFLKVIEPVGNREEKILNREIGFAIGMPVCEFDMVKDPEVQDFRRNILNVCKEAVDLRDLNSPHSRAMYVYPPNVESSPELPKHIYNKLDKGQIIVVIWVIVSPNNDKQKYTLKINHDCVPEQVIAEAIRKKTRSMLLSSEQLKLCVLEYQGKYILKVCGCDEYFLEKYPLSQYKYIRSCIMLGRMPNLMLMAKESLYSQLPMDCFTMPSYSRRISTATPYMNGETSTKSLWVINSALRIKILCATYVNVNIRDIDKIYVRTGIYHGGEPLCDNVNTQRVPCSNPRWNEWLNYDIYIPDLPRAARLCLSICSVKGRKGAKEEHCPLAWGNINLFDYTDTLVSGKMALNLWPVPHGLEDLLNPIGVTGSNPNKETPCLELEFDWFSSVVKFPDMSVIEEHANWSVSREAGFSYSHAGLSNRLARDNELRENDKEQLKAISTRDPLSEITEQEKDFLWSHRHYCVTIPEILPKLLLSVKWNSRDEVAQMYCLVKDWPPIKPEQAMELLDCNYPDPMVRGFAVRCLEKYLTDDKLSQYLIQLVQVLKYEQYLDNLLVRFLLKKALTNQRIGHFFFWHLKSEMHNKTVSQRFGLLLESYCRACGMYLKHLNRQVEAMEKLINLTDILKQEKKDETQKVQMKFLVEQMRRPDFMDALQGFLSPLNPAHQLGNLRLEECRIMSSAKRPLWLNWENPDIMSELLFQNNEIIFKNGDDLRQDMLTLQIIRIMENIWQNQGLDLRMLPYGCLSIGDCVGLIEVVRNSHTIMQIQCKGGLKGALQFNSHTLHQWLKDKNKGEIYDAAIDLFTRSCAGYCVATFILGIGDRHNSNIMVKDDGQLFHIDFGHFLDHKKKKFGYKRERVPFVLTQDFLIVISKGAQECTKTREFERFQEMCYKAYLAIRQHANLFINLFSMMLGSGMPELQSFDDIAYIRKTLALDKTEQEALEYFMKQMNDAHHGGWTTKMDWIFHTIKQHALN

Chain of PIK3CG (human) (P48736 whole entry, looked up): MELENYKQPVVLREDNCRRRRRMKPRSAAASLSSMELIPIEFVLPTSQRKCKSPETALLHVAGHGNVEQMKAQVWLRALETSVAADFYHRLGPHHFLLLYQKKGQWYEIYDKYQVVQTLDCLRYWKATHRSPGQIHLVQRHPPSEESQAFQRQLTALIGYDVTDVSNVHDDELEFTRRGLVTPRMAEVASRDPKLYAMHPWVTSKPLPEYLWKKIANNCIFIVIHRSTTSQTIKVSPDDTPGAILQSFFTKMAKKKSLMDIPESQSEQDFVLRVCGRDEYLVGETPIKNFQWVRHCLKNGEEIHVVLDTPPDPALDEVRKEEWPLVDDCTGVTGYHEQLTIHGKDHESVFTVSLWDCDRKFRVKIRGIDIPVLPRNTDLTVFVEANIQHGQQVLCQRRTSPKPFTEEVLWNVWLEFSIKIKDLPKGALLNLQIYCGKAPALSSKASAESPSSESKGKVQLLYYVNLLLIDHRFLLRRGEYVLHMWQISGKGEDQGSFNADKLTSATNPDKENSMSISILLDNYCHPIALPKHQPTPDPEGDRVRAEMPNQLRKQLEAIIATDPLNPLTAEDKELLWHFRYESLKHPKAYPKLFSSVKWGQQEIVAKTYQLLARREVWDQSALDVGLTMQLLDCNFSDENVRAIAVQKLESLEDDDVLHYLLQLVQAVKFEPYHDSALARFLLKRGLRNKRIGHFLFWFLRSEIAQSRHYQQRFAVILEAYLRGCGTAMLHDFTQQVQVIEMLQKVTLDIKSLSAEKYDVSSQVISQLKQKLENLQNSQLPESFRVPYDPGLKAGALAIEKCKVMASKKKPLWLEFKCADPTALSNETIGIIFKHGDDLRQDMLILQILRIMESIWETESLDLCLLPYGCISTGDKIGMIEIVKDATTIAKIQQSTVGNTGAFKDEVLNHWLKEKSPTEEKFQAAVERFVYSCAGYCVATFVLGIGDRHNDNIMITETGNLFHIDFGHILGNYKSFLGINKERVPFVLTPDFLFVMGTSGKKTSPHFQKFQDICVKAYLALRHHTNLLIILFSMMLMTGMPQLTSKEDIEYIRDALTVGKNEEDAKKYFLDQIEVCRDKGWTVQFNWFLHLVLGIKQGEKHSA
Chain of PIK3CD (Human) (O00329 whole entry, looked up): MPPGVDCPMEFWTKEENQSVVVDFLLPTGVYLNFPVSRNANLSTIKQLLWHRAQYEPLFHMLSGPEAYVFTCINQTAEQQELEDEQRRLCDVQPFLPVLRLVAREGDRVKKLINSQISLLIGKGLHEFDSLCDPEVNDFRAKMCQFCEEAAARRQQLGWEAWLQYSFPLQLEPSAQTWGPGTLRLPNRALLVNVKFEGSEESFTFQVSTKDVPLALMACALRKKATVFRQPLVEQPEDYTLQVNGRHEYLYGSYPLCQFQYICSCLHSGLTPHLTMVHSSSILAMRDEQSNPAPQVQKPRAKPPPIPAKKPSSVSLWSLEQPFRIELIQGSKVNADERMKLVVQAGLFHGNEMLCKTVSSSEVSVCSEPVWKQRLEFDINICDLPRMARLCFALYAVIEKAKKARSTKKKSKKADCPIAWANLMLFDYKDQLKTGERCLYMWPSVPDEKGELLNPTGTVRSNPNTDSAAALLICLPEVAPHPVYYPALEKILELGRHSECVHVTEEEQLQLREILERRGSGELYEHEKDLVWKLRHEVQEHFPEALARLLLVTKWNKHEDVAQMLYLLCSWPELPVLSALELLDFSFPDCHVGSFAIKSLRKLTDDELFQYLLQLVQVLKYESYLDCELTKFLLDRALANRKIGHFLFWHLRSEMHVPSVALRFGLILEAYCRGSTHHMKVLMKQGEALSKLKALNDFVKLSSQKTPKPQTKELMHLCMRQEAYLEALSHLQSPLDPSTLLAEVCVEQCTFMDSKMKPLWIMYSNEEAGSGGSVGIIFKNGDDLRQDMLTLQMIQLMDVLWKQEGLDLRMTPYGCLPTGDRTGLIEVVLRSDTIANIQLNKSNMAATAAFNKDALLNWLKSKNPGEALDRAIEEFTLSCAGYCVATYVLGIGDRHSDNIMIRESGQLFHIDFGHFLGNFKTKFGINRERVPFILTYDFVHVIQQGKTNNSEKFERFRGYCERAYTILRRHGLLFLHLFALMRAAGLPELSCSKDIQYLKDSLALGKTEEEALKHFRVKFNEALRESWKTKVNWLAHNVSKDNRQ
Chain of PIK3CB (Human) (P42338 whole entry, looked up): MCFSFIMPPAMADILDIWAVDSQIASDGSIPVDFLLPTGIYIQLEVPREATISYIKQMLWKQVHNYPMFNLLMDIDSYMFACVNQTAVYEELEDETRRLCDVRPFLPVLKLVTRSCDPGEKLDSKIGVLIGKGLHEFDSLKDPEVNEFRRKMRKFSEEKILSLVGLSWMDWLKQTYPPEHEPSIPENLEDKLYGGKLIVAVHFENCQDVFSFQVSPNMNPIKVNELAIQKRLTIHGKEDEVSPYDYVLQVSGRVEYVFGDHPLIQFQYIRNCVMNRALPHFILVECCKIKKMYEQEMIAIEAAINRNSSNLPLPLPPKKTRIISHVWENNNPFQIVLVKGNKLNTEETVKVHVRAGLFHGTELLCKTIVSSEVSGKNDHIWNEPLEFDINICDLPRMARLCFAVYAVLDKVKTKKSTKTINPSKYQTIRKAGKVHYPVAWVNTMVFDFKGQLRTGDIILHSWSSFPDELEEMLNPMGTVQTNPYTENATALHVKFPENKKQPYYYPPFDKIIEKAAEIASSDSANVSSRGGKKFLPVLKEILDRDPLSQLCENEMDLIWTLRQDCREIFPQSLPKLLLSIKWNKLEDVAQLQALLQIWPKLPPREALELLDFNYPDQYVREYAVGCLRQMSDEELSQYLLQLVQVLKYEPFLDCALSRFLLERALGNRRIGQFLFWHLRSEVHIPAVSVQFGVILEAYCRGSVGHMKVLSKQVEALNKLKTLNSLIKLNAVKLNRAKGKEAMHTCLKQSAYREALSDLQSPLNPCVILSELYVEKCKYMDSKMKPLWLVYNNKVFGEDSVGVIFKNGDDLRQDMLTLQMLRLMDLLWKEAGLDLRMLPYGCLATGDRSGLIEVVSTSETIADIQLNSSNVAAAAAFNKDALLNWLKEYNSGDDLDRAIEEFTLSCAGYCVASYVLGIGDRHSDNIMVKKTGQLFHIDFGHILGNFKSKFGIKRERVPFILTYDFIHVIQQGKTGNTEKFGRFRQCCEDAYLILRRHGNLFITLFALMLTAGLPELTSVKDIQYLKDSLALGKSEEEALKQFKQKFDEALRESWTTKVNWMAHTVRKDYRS

| Compound | IC50 (PIK3CB (Human)) [nM] | IC50 (PIK3CD (Human)) [nM] | IC50 (PIK3CG (human)) [nM] | IC50 (PIK3CA (human)) [nM] |
| --- | --- | --- | --- | --- |
| OCCN1CCN(Cc2cc3nc(-c4cccc(O)c4)nc(N4CCOCC4)c3s2)CC1 | 63 | 8 | 672 |  |
| CN1CCN(Cc2cc3nc(-c4cccc(O)c4)nc(N4CCOCC4)c3s2)CC1 | 35 | 4 | 331 |  |
| CNC(=O)Nc1ccc(-c2nc(N3CC4CCC(C3)O4)c3cnn(C4CCC5(CC4)OCCO5)c3n2)cc1 | > 10000 |  | > 10000 |  |
| COC(=O)Nc1ccc(-c2nc(N3CCOCC3)c3cnn(C4CCN(C(=O)OC)CC4)c3n2)cc1 |  |  | 7370 |  |
| c1cncc(CN2CCC(n3ncc4c(N5CCOCC5)nc(-c5ccc6[nH]ccc6c5)nc43)CC2)c1 |  |  | 8450 |  |
| COc1ncc(-c2ccc3nccc(-c4ccnnc4)c3c2)cc1NS(=O)(=O)c1ccc(F)cc1F |  |  | 0.06 |  |
| COC(=O)Nc1ccc(-c2nc(N3CCOCC3)c3cnn(C4CCN(Cc5cccnc5)CC4)c3n2)cc1 |  |  | 3110 |  |
| CCC(NC(=O)C(CC(=O)O)NC(=O)CNC(=O)C(CCCN=C(N)N)NC(=O)CCC(=O)O[N+]1(c2cc(=O)c3cccc(-c4ccccc4)c3o2)CCOCC1)C(=O)[O-] (stereo not given) | 736 | 3220 | 1770 | 356 |
| COc1ccc(-c2ccc3c(N4CCOC[C@@H]4C)nc(N4CCOC[C@@H]4C)nc3n2)cc1CO | 18900 | 3200 | > 14800 | 3590 |
